Laboratory results taken from paper PMC12040169 (PLOS Biology, 2025).

assay: in vitro; conditions: human, hela cells, % viability

Compared with CCN1CCCC1CN(Cc1cccs1)CC1CCOC1 (centres unmarked) [CBK282602], O=C(NC1CC2(CCCC2)Oc2ccccc21)C1CCOC1 (centres unmarked) [CBK283802] is lower in viability at 28.5 h, 10 µM: 97.1% for the first, 84.3% for the second.

Going from CC(C)OC(=O)Cc1nc(CN2CCc3sccc3C2C)cs1 (centres unmarked) [CBK305284] to Cc1cc(C)n(CC(=O)NCC(c2cccs2)N2CCOCC2)n1 (centres unmarked) [CBK305620], the viability at 28.5 h, 10 µM rises from 85.3% to 102%.

First: CCCc1n[nH]c(Cc2c(Cl)cccc2Cl)c1C(=O)OCC [CBK113275]
Second: O=C(COC(=O)c1cc(S(=O)(=O)N2CCCCC2)c(Cl)cc1Cl)c1ccccc1 [CBK261668]
The viability at 28.5 h, 10 µM of the first is lower: 88.9% for the first, 101% for the second.

Compared with O=C1CC(Nc2ccc(N3CCOCC3)cc2)C(=O)N1CCc1ccccc1 (centres unmarked) [CBK269339], O=C(CN1CCOCC1)N1CCN(CCc2ccccc2)CC1 [CBK200215] is lower in viability at 28.5 h, 10 µM: 111% for the first, 91.4% for the second.

Going from CC(=O)N1CCN(C(=O)C[C@@H]2C[C@@H](C(C)C)[C@H](CNC(=O)c3cccnc3)C=C2C)CC1 [CBK289046] to Cc1nc(CCNC(=O)N2CCC(Oc3cccnc3)CC2)sc1Cl [CBK306636], the viability at 28.5 h, 10 µM falls from 102% to 93.8%.

First: CCCNc1cc(-c2cccc(Cl)c2)nc2ccnn12 [CBK037747]
Second: CC(=O)Nc1cccc(-c2nccnc2NCc2ccc3c(c2)OCO3)c1 [CBK037972]
The viability at 28.5 h, 10 µM of the first is higher: 112% for the first, 97.1% for the second.

First: CN1CCN(c2ccc(NC(=O)c3ccc(OCc4ccccc4)cc3)cc2Cl)CC1 [CBK269080]
Second: O=C(Cc1ccccn1)N1CCN(Cc2ccccc2)CC1 [CBK200174]
The viability at 28.5 h, 10 µM of the first is lower: 96.2% for the first, 103% for the second.

First: O=C1NCCNC(=O)C2(C/C=C/COc3ccccc31)CCN(C(=O)c1ccc3[nH]nnc3c1)CC2 [CBK292000]
Second: CN1CC(=O)N2CCOC(C2)c2cccc(n2)NC(=O)C/C=C/CC2(CCN(Cc3ncc[nH]3)CC2)C1=O (centres unmarked) [CBK292196]
The viability at 28.5 h, 10 µM of the first is higher: 106% for the first, 103% for the second.

First: CC1Cc2ccccc2N1C(=O)Cn1c(CCCO)nc2ccccc21 (centres unmarked) [CBK297548]
Second: CCN(CC)CC(O)Cn1c(-c2ccccc2Cl)nc2ccccc21 (centres unmarked) [CBK262495]
The viability at 28.5 h, 10 µM of the first is lower: 86.1% for the first, 96.3% for the second.

Compared with COc1ccccc1[C@@H]1C[C@H](OC(=O)c2ccc(F)cc2)C(=O)N1C [CBK283598], COc1ccc(OC)c(NC(=O)CNC(=O)c2ccccc2F)c1 [CBK267846] is lower in viability at 28.5 h, 10 µM: 92% for the first, 91.5% for the second.

Going from COc1cc(NC(=O)Cn2c(-c3cncs3)nc3ccccc32)cc(OC)c1OC [CBK267640] to COc1cc(-c2ccc(N)c3ccccc23)cc(OC)c1OC [CBK084332], the viability at 28.5 h, 10 µM falls from 97.2% to 83.5%.

Compared with O=C(O)C1C2CCC(O2)C1C(=O)Nc1ccc2c(c1)OCCO2 (centres unmarked) [CBK263677], CC(=O)Nc1ccc(N2C(=O)CC(N3CCN(Cc4ccc5c(c4)OCO5)CC3)C2=O)cc1 (centres unmarked) [CBK265217] is higher in viability at 28.5 h, 10 µM: 103% for the first, 106% for the second.

Compared with c1ccc(CCNc2cncc(-c3cc4ccccc4o3)n2)nc1 [CBK066036], C[C@H](c1ccccc1)n1c(=O)[nH]c2ncc(-c3ccco3)nc21 [CBK064415] is higher in viability at 28.5 h, 10 µM: 96.5% for the first, 98.1% for the second.

Compared with CCOc1cccc(-c2cncc(NC(C)CCCC(C)(C)O)n2)c1 (centres unmarked) [CBK066020], CC(CCCC(C)(C)O)NS(=O)(=O)c1ccc(-c2ccon2)s1 (centres unmarked) [CBK062466] is lower in viability at 28.5 h, 10 µM: 95.6% for the first, 93.8% for the second.

Going from Cc1cc(C(=O)NC(C)C2CC3CCC2C3)c2cnn(C(C)C)c2n1 (centres unmarked) [CBK281652] to Cc1cccc(C(=O)N2CCC(N(C)Cc3ccc(-c4ccc(S(C)(=O)=O)cc4)nc3)CC2)n1 [CBK165937T], the viability at 28.5 h, 10 µM falls from 96% to 81.5%.

Going from O=C1CNC(=S)N1c1cccc(C(F)(F)F)c1 [CBK288398] to O=C(c1ccc(F)cc1)N1CCCC(c2nccnc2-c2cccc(C(F)(F)F)c2)C1 (centres unmarked) [CBK286142], the viability at 28.5 h, 10 µM falls from 104% to 98.3%.

First: NC(=O)CN1CCCN(c2ccnc(OCC3COc4ccccc4O3)n2)CC1 (centres unmarked) [CBK083236T]
Second: O=C(Cn1c(=O)n(Cc2ccco2)c2ncccc21)N1CCCC1 [CBK284708]
The viability at 28.5 h, 10 µM of the first is higher: 91.4% for the first, 88.9% for the second.

First: CSc1nsc(SCC(=O)Nc2ccc(OC(C)=O)cc2)n1 [CBK268948]
Second: O=C(COc1ccc([N+](=O)[O-])cc1)Nc1cccc2nsnc12 [CBK263808]
The viability at 28.5 h, 10 µM of the first is lower: 88.1% for the first, 94.8% for the second.

First: Cc1cccc(-n2ncc3c(=O)n(CC(=O)Nc4ccccc4)cnc32)c1C [CBK287693]
Second: O=C(CN1C(=O)c2ccccc2C1=O)Nc1cccc2ncccc12 [CBK262761]
The viability at 28.5 h, 10 µM of the first is higher: 95.1% for the first, 84% for the second.

Compared with Cc1cc(C)cc(OCc2nnc(SCC(=O)Nc3c(F)cc(F)cc3Br)n2C)c1 [CBK268604], Cc1cc(C)c(NC(=O)CSc2nc(C)c(Cc3ccccc3Cl)c(O)n2)c([N+](=O)[O-])c1 [CBK268693] is higher in viability at 28.5 h, 10 µM: 83.6% for the first, 90.4% for the second.

Compared with O=C1c2ccc(-c3nc4ccc(Cl)cc4c(=O)o3)cc2C(=O)N1Cc1cccnc1 [CBK268460], O=C(Nc1ccccc1)c1ccc2c(c1)C(=O)N(c1cccc(N3C(=O)c4ccc(C(=O)Nc5ccccc5)cc4C3=O)n1)C2=O [CBK261197] is lower in viability at 28.5 h, 10 µM: 104% for the first, 91.5% for the second.

Compared with CN(C)C(=O)C1(Cc2ccccc2-c2cccnc2)CCN(Cc2ccccc2)CC1 [CBK285522], Cc1ccccc1C(NC(=O)C1CCN(C(=O)NCc2ccccc2)CC1)c1ncccc1C (centres unmarked) [CBK060398] is higher in viability at 28.5 h, 10 µM: 85.7% for the first, 94.9% for the second.

Going from O=S(=O)(c1ccccc1)n1c(CO)cc2c(C(F)(F)F)cc(CN3CCNCC3)cc21 [CBK143799] to O=C(c1[nH]c2ccccc2c1NS(=O)(=O)/C=C/c1ccccc1)N1CCOCC1 [CBK050068], the viability at 28.5 h, 10 µM falls from 97.7% to 93.1%.

Compared with O=C(CSc1nc(N2CCOCC2)nc(N2CCOCC2)n1)c1ccc([N+](=O)[O-])cc1 [CBK269107], Cn1c(=O)n(C)c2cc(CNc3ccc(N4CCOCC4)c(C(=O)O)c3)ccc21 [CBK269463] is lower in viability at 28.5 h, 10 µM: 86.9% for the first, 84.7% for the second.

First: CCn1cc(C2CN(S(=O)(=O)c3cc(C)c(OC)c(C)c3)CCO2)cn1 (centres unmarked) [CBK304224]
Second: COc1c(C)cnc(CNC2CCCN(Cc3noc(C)n3)C2)c1C (centres unmarked) [CBK305350]
The viability at 28.5 h, 10 µM of the first is lower: 85.8% for the first, 92.3% for the second.

First: Cn1c(=O)n(CC(=O)NCCc2ccccc2)c2cccnc21 [CBK283910]
Second: CC[C@H](Cn1c(=O)oc2ccccc21)NC(=O)c1ccco1 [CBK284541]
The viability at 28.5 h, 10 µM of the first is lower: 82.8% for the first, 86.7% for the second.

First: NC1=NC(=O)C(CC(=O)Nc2ccccc2Cl)S1 (centres unmarked) [CBK039145]
Second: CSc1nc(-c2ccccc2)nc(N)c1C(C)=O [CBK270762]
The viability at 28.5 h, 10 µM of the first is higher: 99.1% for the first, 90.1% for the second.

Going from NC(=O)c1c(NC(=O)c2ccc(COc3ccc4ccccc4c3)o2)sc2c1CCCC2 [CBK265871] to N#Cc1c(NC(=O)CSc2nnnn2-c2ccc(C(=O)O)cc2)sc2c1CCCC2 [CBK299876], the viability at 28.5 h, 10 µM falls from 88.5% to 87.6%.

Compared with O=C(O)/C=C/C(=O)NCCc1c[nH]c2ccccc12 [CBK287222], O=C(CNC(=O)c1cccc(Cl)c1)N/N=C/C=C/c1ccccc1 [CBK261947] is lower in viability at 28.5 h, 10 µM: 93% for the first, 90.4% for the second.

Compared with O=C1CCCN1CCOc1nccnc1-c1ccc(F)cc1 [CBK106895], CCCC/C=C/c1cnc(N)c(-c2ccc(O)cc2)n1 [CBK064068] is lower in viability at 28.5 h, 10 µM: 98.7% for the first, 95.3% for the second.

Compared with O=C(NCCNCc1ccccc1)c1ccccc1 [CBK012505], O=C(NCCN1CCCCC1)C1CC(=O)N(CCc2ccccc2)C1 (centres unmarked) [CBK305986] is lower in viability at 28.5 h, 10 µM: 119% for the first, 91.7% for the second.

First: O=C(CN1CCCCCC1=O)NCC(CO)Cc1ccsc1 (centres unmarked) [CBK306763]
Second: CCOC(=O)N1CCC(n2c(=O)[nH]c3ccccc32)CC1 [CBK149867]
The viability at 28.5 h, 10 µM of the first is higher: 118% for the first, 79.6% for the second.

Going from Cc1ccc(CN(C2CCN(C)CC2)S(=O)(=O)c2ccccc2F)cc1 [CBK160444T] to Cc1ccc(NC(=S)NCCc2ccc(S(N)(=O)=O)cc2)c(C)c1 [CBK264870], the viability at 28.5 h, 10 µM rises from 90.8% to 93.9%.

Going from CNS(=O)(=O)c1ccc2c3c(cccc13)C(=O)N2 [CBK287275] to CCCS(=O)(=O)N1CCN(CCN2C(=O)c3cccc4cccc(c34)C2=O)CC1 [CBK265559], the viability at 28.5 h, 10 µM falls from 89.7% to 81%.

Going from O=C(O)C1CCC1C(=O)N1CCN(c2ccc(C(F)(F)F)cn2)CC1 (centres unmarked) [CBK057147] to COc1ccccc1CC(=O)N1CCn2cc(C(F)(F)F)nc2C1 [CBK283806], the viability at 28.5 h, 10 µM falls from 93.7% to 84.5%.

Compared with FC(F)(F)c1cccc(OCCOc2ccccc2)n1 [CBK115835], CS(=O)(=O)NCC1(c2ccccc2)CCN(S(=O)(=O)c2ccc(N3CCOCC3)nc2)CC1 [CBK051634] is higher in viability at 28.5 h, 10 µM: 87.7% for the first, 90% for the second.

First: CN(CCCN1CCC(C(=O)NC(c2cccnc2)c2ccc3c(c2)OCO3)CC1)S(C)(=O)=O (centres unmarked) [CBK148505]
Second: O=S(=O)(c1cc(Cl)sc1Cl)N1CCN(Cc2ccc3c(c2)OCO3)CC1 [CBK074743]
The viability at 28.5 h, 10 µM of the first is higher: 93.1% for the first, 92.6% for the second.

Going from CC(=O)Nc1cc(NC(C)=O)c(C)c(C(=O)O)c1 [CBK286623] to CC(NC(=O)/C(=C\c1ccc(Cl)cc1)NC(=O)c1ccccc1Br)C(=O)O (centres unmarked) [CBK264582], the viability at 28.5 h, 10 µM rises from 88.6% to 91.4%.

Going from CC(C)c1nc(NCc2nnc(C(C)C)n2C)nc(N(C)C)n1 [CBK306402] to Cc1cc([N+](=O)[O-])ccc1NC(=O)Cn1cnc2c1c(=O)n(C)c(=O)n2C [CBK263162], the viability at 28.5 h, 10 µM rises from 104% to 105%.

Going from CCC1C(c2ccc(C)cc2)=CCC(C(=O)NCCCN(C)C)C1C (centres unmarked) [CBK016514] to CN(C)CCN(C)c1cncc(-c2ccc(Cl)cc2)n1 [CBK065724], the viability at 28.5 h, 10 µM rises from 79.6% to 93%.

Going from CC(C)(C)OC(=O)N1CCC(CNS(=O)(=O)c2cc(Cl)sc2Cl)CC1 [CBK086018] to CCn1c(=N)c(C(=O)NCCOC)cc2c(=O)n3ccccc3nc21 [CBK287605], the viability at 28.5 h, 10 µM falls from 114% to 89.5%.

Compared with Cc1ccc(-c2n[nH]c(=S)n2CCC(=O)NCc2ccc(-c3csc(C)n3)s2)cc1 [CBK297924], O=C(c1ccc(F)cc1)c1ccc(CSc2nnc3sc4ccccc4n23)cc1 [CBK265553] is higher in viability at 28.5 h, 10 µM: 84.5% for the first, 85.9% for the second.

Work on C(=N\c1ccc(Cc2ccc(/N=C/c3ccc[nH]3)cc2)cc1)/c1ccc[nH]1 [CBK261282] yielded a viability at 28.5 h, 10 µM of 101%.

same assay, conditions: human, hela cells, % viability, bulk resorufin, single well

With Cc1ccc(OCCn2cc(/C=C3/C(=O)NC(=O)N(Cc4ccco4)C3=O)c3ccccc32)cc1 [CBK263936] the viability at 28.5 h, 10 µM was 92.9%.
